Where only a bound is given, the exact number is not on record here.

The test system of the test is Musca domestica. Briefly: Insecticidal activity against Musca domestica (house fly) assessed as mortality per fly pretreated with piperonyl butoxide measured after 24 hr. Type of test: functional.

Turning to `COC[C@H]1Oc2cc([C@H]3OC[C@]4(O)[C@@H](Oc5ccc6c(c5)OCO6)OC[C@H]34)c(OC)cc2O[C@@H]1c1ccc2c(c1)OCO2` (racemic) [(+)-HAEDOXAN E], the LD50 worked out at 0.1 µg.

With `COCC1Cc2cc([C@@H]3OC[C@]4(O)[C@@H](Oc5c(OC)cccc5OC)OC[C@H]34)c(OC)cc2OC1c1ccc2c(c1)OCO2` (mixture of isomers), the LD50 is greater than 10 µg.

`COC[C@H]1Oc2cc([C@H]3OC[C@]4(O)[C@@H](Oc5c(OC)cc6c(c5OC)OCO6)OC[C@H]34)c(OC)cc2O[C@@H]1c1ccc2c(c1)OCO2` (racemic) [(+)-HAEDOXAN A]: the LD50 is 0.00025 µg.

Regarding `COC[C@H]1Oc2cc([C@H]3OC[C@]4(O)[C@@H](Oc5ccc6c(c5)OCO6)OC[C@H]34)c(OC)cc2O[C@@H]1c1ccc2c(c1)OCO2` [(+)-HAEDOXAN E], the LD50 is 0.05 µg.

Regarding `COCC1Oc2cc([C@H]3OC[C@]4(O)[C@@H](Oc5c(OC)cccc5OC)OC[C@H]34)c(OC)cc2CC1c1ccc2c(c1)OCO2` (mixture of isomers), the LD50 came to 0.005 µg.

On to `COC[C@@H]1Oc2cc([C@H]3OC[C@]4(O)[C@@H](Oc5ccc6c(c5)OCO6)OC[C@H]34)c(OC)cc2O[C@H]1c1ccc2c(c1)OCO2` (racemic), for which the LD50 is greater than 5 µg.

Consider `COCC1Oc2cc([C@H]3OC[C@]4(O)[C@@H](Oc5ccc6c(c5)OCO6)OC[C@H]34)c(OC)cc2OC1c1ccc2c(c1)OCO2` (mixture of isomers), for which the LD50 was found to be 0.18 µg.

In the case of `COCC1Cc2cc([C@H]3OC[C@]4(O)[C@@H](Oc5c(OC)cccc5OC)OC[C@H]34)c(OC)cc2OC1c1ccc2c(c1)OCO2` (mixture of isomers), the LD50 was 1 µg.

For the origin of these results see ChEMBL document CHEMBL3045299, “Chromano-analogs of Insecticidal Neolignans of the 1,4-Benzodioxane Type” (1993).
